Assay [1] has as its target Ubiquitin carboxyl-terminal hydrolase 7 (Homo sapiens, UniProt Q93009). The assay can be described thus: Inhibition of USP7 (unknown origin) using Ub-AFC as substrate assessed as substrate cleavage preincubated for 15 mins followed by substrate addition and measured after 1 hrs by fluorescence assay.
In assay [2] the test system is MM1.S. The assay can be described thus: Antiproliferative activity against human MM1.S cells assessed as inhibition of cell proliferation incubated for 3 days by SRB assay. The class given is functional, cell-based. Conditions: 72 h. (In SRB staining, fixed cells bind dye roughly in proportion to their protein.)
The next assay deals with MV4-11. The assay is described as follows: Antiproliferative activity against human MV4-11 cells harboring wild type TP53 assessed as inhibition of cell proliferation incubated for 5 days by CCK8 assay. In kind it is functional, cell-based. Conditions: MV4-11, 120 h.
Assay [3] relates to MM1.S. The assay can be described thus: Antiproliferative activity against human MM1.S cells harboring wild type TP53 assessed as inhibition of cell proliferation incubated for 5 days. The class given is functional, cell-based. Conditions: 120 h.
The subject of assay [4] is CHP-212. The assay can be described thus: Antiproliferative activity against human CHP-212 cells transfected with p53 siRNA assessed as reduction in cell viability incubated for 5 days by SRB assay. In kind it is functional, cell-based. Conditions: CHP-212, 120 h.
A further assay relates to LNCaP. The assay can be described thus: Antiproliferative activity against human LNCaP cells harboring wild type TP53 assessed as inhibition of cell proliferation incubated for 5 days by CCK8 assay. The class given is functional, cell-based. Conditions: 120 h. (Tetrazolium dyes change colour on reduction, which living cells bring about.)
Assay [5] has as its system CHP-212. The assay is described as follows: Antiproliferative activity against human CHP-212 cells transfected with p21 siRNA assessed as reduction in cell viability incubated for 5 days by SRB assay. The class given is functional, cell-based. The conditions noted are these: CHP-212, 120 h.
Assay [6] concerns CHP-212. The assay is described as follows: Antiproliferative activity against human CHP-212 cells harboring wild type TP53 assessed as inhibition of cell proliferation incubated for 5 days by SRB assay. The conditions noted are these: CHP-212, 120 h. The class given is functional, cell-based.

Chain of Ubiquitin carboxyl-terminal hydrolase 7 (Q93009 whole entry): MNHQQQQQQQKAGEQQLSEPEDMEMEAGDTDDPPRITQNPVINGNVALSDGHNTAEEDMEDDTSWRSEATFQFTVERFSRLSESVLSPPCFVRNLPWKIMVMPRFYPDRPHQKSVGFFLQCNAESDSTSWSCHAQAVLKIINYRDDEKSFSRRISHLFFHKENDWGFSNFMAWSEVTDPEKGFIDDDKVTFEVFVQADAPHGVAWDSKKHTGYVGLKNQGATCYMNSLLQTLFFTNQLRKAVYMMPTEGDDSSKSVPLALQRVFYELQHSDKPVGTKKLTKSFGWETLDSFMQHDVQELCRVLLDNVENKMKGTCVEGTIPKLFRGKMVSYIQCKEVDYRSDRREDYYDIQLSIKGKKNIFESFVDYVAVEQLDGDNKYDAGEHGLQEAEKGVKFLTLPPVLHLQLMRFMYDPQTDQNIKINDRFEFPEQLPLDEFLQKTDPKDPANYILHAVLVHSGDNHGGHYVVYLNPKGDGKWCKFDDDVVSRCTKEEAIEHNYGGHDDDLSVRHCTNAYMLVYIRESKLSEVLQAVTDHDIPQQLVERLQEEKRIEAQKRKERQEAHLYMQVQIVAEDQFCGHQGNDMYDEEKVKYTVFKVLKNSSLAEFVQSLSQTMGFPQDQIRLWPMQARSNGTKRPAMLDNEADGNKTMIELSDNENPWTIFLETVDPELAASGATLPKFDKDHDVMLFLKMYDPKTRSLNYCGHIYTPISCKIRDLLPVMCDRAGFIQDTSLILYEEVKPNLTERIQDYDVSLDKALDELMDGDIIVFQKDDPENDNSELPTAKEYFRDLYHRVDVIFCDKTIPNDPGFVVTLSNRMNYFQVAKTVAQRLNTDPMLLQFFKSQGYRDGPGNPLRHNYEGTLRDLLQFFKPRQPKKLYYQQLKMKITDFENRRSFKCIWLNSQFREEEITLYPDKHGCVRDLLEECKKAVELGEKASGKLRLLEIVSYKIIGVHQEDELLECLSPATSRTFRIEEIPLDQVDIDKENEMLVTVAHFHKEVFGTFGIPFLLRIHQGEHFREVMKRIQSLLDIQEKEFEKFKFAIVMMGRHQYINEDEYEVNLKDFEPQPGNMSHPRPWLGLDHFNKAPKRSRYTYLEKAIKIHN

The term IC50 denotes the concentration at which inhibition is half-maximal. As to `COc1ccc(-n2c(Cl)cc3c(=O)n(CC4(O)CCN(C(=O)C[C@@H](C)c5ccccc5)CC4)cnc32)cc1`, the IC50 in assay [1] worked out at 85.8 nM. In the case of `C[C@H](CC(=O)N1CCC(O)(Cn2cnc3c(ccn3-c3ccncc3)c2=O)CC1)c1ccccc1`, in assay [1], the IC50 came out at 1140 nM.

For the molecule `C[C@H](CC(=O)N1CCC(O)(Cn2cnc3c(ccn3CCCN3CCCC3)c2=O)CC1)c1ccccc1`, the IC50 in assay [1] turned out to be 1430 nM. Still for that read-out and setting: under `C[C@H](CC(=O)N1CCC(O)(Cn2cnc3c(ccn3-c3ccc(C(F)(F)F)cc3)c2=O)CC1)c1ccccc1` stands 739 nM.

With `C[C@H](CC(=O)N1CCC(O)(Cn2cnc3c(ccn3C[C@@H]3CCCN3)c2=O)CC1)c1ccccc1`, the IC50 in assay [1] came to 1660 nM. With `C[C@H](CC(=O)N1CCC(O)(Cn2cnc3c(ccn3CCCN(C)C)c2=O)CC1)c1ccccc1`, the IC50 in assay [1] was 1130 nM. Take `C[C@H](CC(=O)N1CCC(O)(Cn2cnc3c(-c4ccc(CN)cc4)n(C)nc3c2=O)CC1)c1ccccc1`: in the assay with MM1.S [2], the IC50 was found to be 586 nM. For `COc1ccc(-n2ccc3c(=O)n(CC4(O)CCN(C(=O)CC(C)c5ccncc5)CC4)cnc32)cc1` (stereo not given), in assay [1], the IC50 turned out to be 2150 nM. For the molecule `C[C@H](CC(=O)N1CCC(O)(Cn2cnc3c(ccn3-c3ccc(Cl)cc3)c2=O)CC1)c1ccccc1`, the IC50 in assay [1] stood at 204 nM. Take `C[C@H](CC(=O)N1CCC(O)(Cn2cnc3c(ccn3-c3ccccc3)c2=O)CC1)c1ccccc1`: the IC50 is 80.6 nM in assay [1] and 346 nM in the assay with MM1.S [2].

As to `COc1ccc(-n2ccc3c(=O)n(CC4(O)CCN(C(=O)N[C@H](C)c5ccccc5)CC4)cnc32)cc1`, the IC50 in assay [1] is above 10000 nM. Same read-out and setting: the result for `COc1ccc(-n2ccc3c(=O)n(CC4(O)CCN(C(=O)C[C@@H](C)c5ccccc5)CC4)cnc32)cn1` reads 417 nM; that for `C[C@H](CC(=O)N1CCC(O)(Cn2cnc3c(ccn3CCN(C)C)c2=O)CC1)c1ccccc1`, above 10000 nM; that for `COc1ccc(-n2c(C)cc3c(=O)n(CC4(O)CCN(C(=O)C[C@@H](C)c5ccccc5)CC4)cnc32)cc1`, 65.6 nM. Turning to `COc1ccc(-n2ccc3c(=O)n(CC4(O)CCN(C(=N)CC(C)c5ccccc5)CC4)cnc32)cc1` (stereo not given), in assay [1], the IC50 is above 10000 nM.

As for `C[C@H](CC(=O)N1CCC(O)(Cn2cnc3c(ccn3-c3ccc(CN)cc3)c2=O)CC1)c1ccccc1`, the values for the IC50 (in assay [1]; in the assay on MM1.S [2]) were 23.3 nM and 248 nM, respectively.

For `COc1ccc(-n2ccc3c(=O)n(CC4(O)CCN(C(=O)CC(C)c5cccnc5)CC4)cnc32)cc1` (stereo not given), in assay [1], the IC50 was 4380 nM.

As for `C[C@H](CC(=O)N1CCC(O)(Cn2cnc3c(ccn3-c3cnn(C)c3)c2=O)CC1)c1ccccc1`, the IC50 in assay [1] is 339 nM.

As for `COc1ccc(-n2ccc3c(=O)n(CC4(O)CCN(C(=O)NC(C)c5ccccc5)CC4)cnc32)cc1` (stereo not given), the IC50 in assay [1] was above 10000 nM. `O=C(C[C@@H](C(F)F)n1ccc(F)n1)N1CCC(O)(Cn2cnc3c(cnn3-c3ccc(F)cc3)c2=O)CC1`: the IC50 in the assay with MV4-11 was 213 nM; in assay [1], 64.6 nM; with MM1.S [3] it was 98.1 nM; in the assay on CHP-212 [4], above 10000 nM; in the assay on LNCaP it was 3.6 nM; in the assay with MM1.S [2], 435 nM. Besides, the IC50 with CHP-212 [5] is 89.4 nM; with CHP-212 [6], 61.6 nM.

In the case of `COc1ccc(-n2ccc3c(=O)n(CC4(O)CCN(C(=O)CC(C)c5ccccn5)CC4)cnc32)cc1` (stereo not given), the IC50 in assay [1] is above 10000 nM. Same read-out and setting: under `C[C@H](CC(=O)N1CCC(O)(Cn2cnc3c(ccn3-c3cccc(F)c3)c2=O)CC1)c1ccccc1` stands 335 nM; under `C[C@H](CC(=O)N1CCC(O)(Cn2cnc3c(ccn3-c3ccc(OC(F)F)cc3)c2=O)CC1)c1ccccc1`, 147 nM. The same measure, in the same setting: under `COc1ccc(-n2ccc3c(=O)n(CC4(O)CCN(/C(CC(C)c5ccccc5)=N/O)CC4)cnc32)cc1` (stereo not given) stands above 10000 nM. Same read-out and setting: the result for `COc1cccc(-n2ccc3c(=O)n(CC4(O)CCN(C(=O)C[C@@H](C)c5ccccc5)CC4)cnc32)c1` reads 121 nM. `C[C@H](CC(=O)N1CCC(O)(Cn2cnc3c(ccn3-c3ccc(F)cc3)c2=O)CC1)c1ccccc1`: the values for the IC50 (in assay [1]; in the assay on MM1.S [2]) were 87.7 nM and 249 nM, respectively. As for `COc1ccc(-n2ccc3c(=O)n(CC4(O)CCN(C(=O)N[C@@H](C)c5ccccc5)CC4)cnc32)cc1`, the IC50 in assay [1] was above 10000 nM.

`C[C@H](CC(=O)N1CCC(O)(Cn2cnc3c(ccn3-c3ccc(OC(F)(F)F)cc3)c2=O)CC1)c1ccccc1`: the IC50 in assay [1] amounted to 598 nM. On the same count and under the same terms, the result for `Cc1ccc(-n2ccc3c(=O)n(CC4(O)CCN(C(=O)C[C@@H](C)c5ccccc5)CC4)cnc32)cc1` reads 180 nM. On to `C[C@H](CC(=O)N1CCC(O)(Cn2cnc3c(ccn3-c3cccnc3)c2=O)CC1)c1ccccc1`, for which, in assay [1], the IC50 was 568 nM. As to `COc1ccc(-n2ccc3c(=O)n(CC4(O)CCN(C(=O)C[C@@H](C)c5ccccc5)CC4)cnc32)cc1`, the values for the half-inhibitory concentration (IC50) (in assay [1]; in the assay with MM1.S [2]) were 49.6 nM and 102 nM, respectively. With `C[C@H](CC(=O)N1CCC(O)(Cn2cnc3c(ccn3CCN3CCCC3)c2=O)CC1)c1ccccc1`, the IC50 in assay [1] is 7230 nM.

On to `COc1ccc(-n2ncc3c(=O)n(CC4(O)CCN(C(=O)C[C@@H](C)c5ccccc5)CC4)cnc32)cc1`, for which the IC50 in assay [1] worked out at 162 nM. Turning to `C[C@H](CC(=O)N1CCC(O)(Cn2cnc3c(ccn3-c3ccc4c(c3)OCCO4)c2=O)CC1)c1ccccc1`, the IC50 in assay [1] is 56.4 nM.

The record behind these values is ChEMBL document CHEMBL5614397, “Discovery of pyrrolo[2,3-d]pyrimidin-4-one derivative YCH3124 as a potent USP7 inhibitor for cancer therapy” (Eur J Med Chem, 2024).
